Measurements reported in patent US11845805B2, “Bispecific antibody against CD3 and CD20 in combination therapy for treating diffuse large B-cell lymphoma” (GENMAB A/S, priority 2020, dated 2023).
Where two headings read alike, the source gives them in different places.

What was measured:
[1] = test system: T cells; assay: T cell viability after 16 hours pre-incubation with CHOP components; format: cell-based
[2] = test system: CD20-expressing Raji-luc tumor cells; details: even in the presence of an excess of IgG1-RTX-FEAR (rituximab variant with inert Fc domain); cited from earlier work
[3] = test system: primary DLBCL and follicular lymphoma patient biopsies; details: biopsies taken a certain amount of time after administration of an anti-CD20 antibody; cited from earlier work
[4] = T cells pretreated 16 hours with the CHOP component

Question: For `CC[C@]1(O)C[C@H]2CN(CCc3c([nH]c4ccccc34)[C@@](C(=O)OC)(c3cc4c(cc3OC)N(C=O)[C@H]3[C@@](O)(C(=O)OC)[C@H](OC(C)=O)[C@]5(CC)C=CCN6CC[C@]43[C@@H]65)C2)C1` [vincristine], which T cell viability [1, 4] is on record?
Answer: did not impact T cell viability

Question: With `O=P1(N(CCCl)CCCl)NCCCO1` (stereo not drawn) [cyclophosphamide, 2H-1,3,2-Oxazaphosphorin-2-amine, N,N-bis(2-chloroethyl)tetrahydro-, 2-oxide] as the compound, how does the T cell viability [1] read?
Answer: did not impact T cell viability

Question: With `C[C@]12C=CC(=O)C=C1CC[C@@H]1[C@@H]2C(=O)C[C@@]2(C)[C@H]1CC[C@]2(O)C(=O)CO` [prednisone, 17,21-dihydroxypregna-1,4-diene-3,11,20-trione] as the compound, how does the T cell viability [1, 4] read?
Answer: did not impact T cell viability

Question: Which T cell viability [1, 4] does the source give for `COc1cccc2c1C(=O)c1c(O)c3c(c(O)c1C2=O)C[C@@](O)(C(=O)CO)C[C@@H]3O[C@H]1C[C@H](N)[C@H](O)[C@H](C)O1` [doxorubicin] here?
Answer: reduction in T cell viability

Question: For “epcoritamab: IgG1 bispecific CD3×CD20 antibody; heavy/light chain pairs SEQ ID NOs: 24/25 and 26/27; CAS 2134641-34-0”, which “tumor growth in the xenograft model” value [2] is on record?
Answer: effectively reduce tumor growth

Question: What about the “T-cell-mediated cytotoxicity in patient biopsies” value [3] of the same compound?
Answer: induced T-cell-mediated cytotoxicity
